One may read the IC50 as the concentration that inhibits the measured activity by half.

The assay has as its target L-lactate dehydrogenase (Homo sapiens, UniProt V9HWB9). The assay is described as follows: Inhibition of LDH (unknown origin) assessed as reduction in lactate production by cell-based assay.

`CC(=O)c1cc(-c2nn(-c3nc(C(=O)O)cs3)c(CC3CC3)c2Cc2ccc(S(N)(=O)=O)c(F)c2)ccc1F`: the IC50 is below 1 µM.
Next, `NS(=O)(=O)c1ccc(Cc2c(-c3ccc(F)c(C4=CCC(F)(F)CC4)c3)nn(-c3nc(C(=O)O)cs3)c2CC2CC2)cc1F`: below 1 µM; `CC1CC=C(c2cc(-c3nn(-c4nc(C(=O)O)cs4)c(CC4CC4)c3Cc3ccc(S(N)(=O)=O)c(F)c3)ccc2F)CC1` (stereo unspecified): below 1 µM; `Cc1ccc(-c2cc(-c3nn(-c4nc(C(=O)O)cs4)c(CC4CC4)c3Cc3ccc(S(N)(=O)=O)c(F)c3)ccc2F)cc1F`: below 1 µM.
Regarding `CC1CCCC=C1c1cc(-c2nn(-c3nc(C(=O)O)cs3)c(CC3CC3)c2Cc2ccc(S(N)(=O)=O)c(F)c2)ccc1F` (stereo unspecified), the IC50 is below 1 µM.
As for `Cc1ccc(/C=C/c2cccc(-c3nn(-c4nc(C(=O)O)cs4)c(CC4CC4)c3Cc3ccc(S(N)(=O)=O)c(F)c3)c2)s1`, the figure is below 1 µM.

The record behind these values is ChEMBL document CHEMBL4251691, “Thiazole Derivatives as Inhibitors for the Treatment of Cancer Cells Resistant” (ACS Med Chem Lett, 2018).
